Active and inactive are the calls of the source.
Tests used:
[1] = molecular target: T1, Alkaline phosphatase, tissue-nonspecific isozyme (Homo sapiens, UniProt P05186); test: TNAP enzyme inhibition by screening hits, dose response, selectivity assay for mouse IAP inhibitor project, biochemical, human TNAP, uHTS hits (AID 488906); type: functional
T1 sequence (P05186 whole entry): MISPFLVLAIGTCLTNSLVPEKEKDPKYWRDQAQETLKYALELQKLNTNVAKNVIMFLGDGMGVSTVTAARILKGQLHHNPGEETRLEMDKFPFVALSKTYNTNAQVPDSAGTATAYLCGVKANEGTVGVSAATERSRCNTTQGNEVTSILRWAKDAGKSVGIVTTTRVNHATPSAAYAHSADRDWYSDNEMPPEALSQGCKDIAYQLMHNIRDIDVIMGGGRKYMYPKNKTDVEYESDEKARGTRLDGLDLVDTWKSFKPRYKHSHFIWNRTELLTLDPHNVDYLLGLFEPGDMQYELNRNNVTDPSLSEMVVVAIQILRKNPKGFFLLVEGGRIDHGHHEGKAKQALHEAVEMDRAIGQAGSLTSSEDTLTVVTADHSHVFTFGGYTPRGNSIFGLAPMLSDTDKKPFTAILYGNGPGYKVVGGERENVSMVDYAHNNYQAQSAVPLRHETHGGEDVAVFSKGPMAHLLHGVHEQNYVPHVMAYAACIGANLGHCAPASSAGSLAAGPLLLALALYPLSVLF

[2] = molecular target: Heat shock protein HSP 90-alpha (Homo sapiens, UniProt P07900); type: functional, organism-based
[3] = molecular target: Eukaryotic translation initiation factor 4E (Mus musculus, UniProt P63073); test: eIF4E–eIF4G protein interaction inhibitors, dose response, biochemical, TR-FRET (AID 855); type: functional;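 note: potency for disrupting eIF4E binding to eIF4GI seen as loss of FRET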
[4] = molecular target: Glutathione-S-transferase (Schistosoma japonicum, UniProt Q26513); test: biotin-GST/anti-GST TR-FRET signal inhibitors, dose response, artefact control for Vif-APOBEC3G degradation inhibitor project, biochemical (AID 1117362); type: functional
[5] = molecular target: T2, Tyrosine-protein phosphatase non-receptor type 7 (Homo sapiens, UniProt P35236); type: functional
T2 sequence (P35236 whole entry): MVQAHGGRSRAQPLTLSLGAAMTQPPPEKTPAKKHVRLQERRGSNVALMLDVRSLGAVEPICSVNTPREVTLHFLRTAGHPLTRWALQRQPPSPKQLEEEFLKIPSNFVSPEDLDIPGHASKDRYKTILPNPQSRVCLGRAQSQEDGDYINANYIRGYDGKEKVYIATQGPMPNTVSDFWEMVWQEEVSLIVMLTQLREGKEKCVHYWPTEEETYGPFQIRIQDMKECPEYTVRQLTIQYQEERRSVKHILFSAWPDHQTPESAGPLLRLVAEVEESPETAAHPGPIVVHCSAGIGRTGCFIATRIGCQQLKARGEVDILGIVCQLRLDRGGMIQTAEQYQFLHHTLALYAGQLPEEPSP

[6] = molecular target: Mitogen-activated protein kinase 8 (Homo sapiens, UniProt P45983); type: functional;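 note: value comes from one member of a kinome-wide kinase profiling panel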
Mitogen-activated protein kinase 8, sequence (P45983 whole entry): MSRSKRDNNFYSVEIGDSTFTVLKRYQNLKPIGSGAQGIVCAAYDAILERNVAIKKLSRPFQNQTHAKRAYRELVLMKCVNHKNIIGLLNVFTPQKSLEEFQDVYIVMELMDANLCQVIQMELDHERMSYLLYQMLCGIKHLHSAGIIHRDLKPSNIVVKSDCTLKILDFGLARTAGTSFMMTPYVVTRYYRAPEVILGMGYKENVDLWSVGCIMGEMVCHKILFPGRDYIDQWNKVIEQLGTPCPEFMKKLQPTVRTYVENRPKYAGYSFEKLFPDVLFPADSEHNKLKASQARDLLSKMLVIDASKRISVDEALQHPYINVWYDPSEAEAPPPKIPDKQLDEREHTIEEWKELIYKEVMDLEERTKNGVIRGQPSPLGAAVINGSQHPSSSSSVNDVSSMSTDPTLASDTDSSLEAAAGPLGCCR

[7] = molecular target: High affinity nerve growth factor receptor (Homo sapiens, UniProt P04629); type: functional;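 note: NTRK1 tested as one member of a kinome-wide profiling panel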
[8] = molecular target: Fibroblast growth factor receptor 1 (Homo sapiens, UniProt P11362); type: functional
[9] = molecular target: Rho-associated protein kinase 1 (Homo sapiens, UniProt Q13464); type: functional;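 note: measured within a broad kinome-wide panel profiling many kinases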
Rho-associated protein kinase 1, sequence (Q13464 whole entry): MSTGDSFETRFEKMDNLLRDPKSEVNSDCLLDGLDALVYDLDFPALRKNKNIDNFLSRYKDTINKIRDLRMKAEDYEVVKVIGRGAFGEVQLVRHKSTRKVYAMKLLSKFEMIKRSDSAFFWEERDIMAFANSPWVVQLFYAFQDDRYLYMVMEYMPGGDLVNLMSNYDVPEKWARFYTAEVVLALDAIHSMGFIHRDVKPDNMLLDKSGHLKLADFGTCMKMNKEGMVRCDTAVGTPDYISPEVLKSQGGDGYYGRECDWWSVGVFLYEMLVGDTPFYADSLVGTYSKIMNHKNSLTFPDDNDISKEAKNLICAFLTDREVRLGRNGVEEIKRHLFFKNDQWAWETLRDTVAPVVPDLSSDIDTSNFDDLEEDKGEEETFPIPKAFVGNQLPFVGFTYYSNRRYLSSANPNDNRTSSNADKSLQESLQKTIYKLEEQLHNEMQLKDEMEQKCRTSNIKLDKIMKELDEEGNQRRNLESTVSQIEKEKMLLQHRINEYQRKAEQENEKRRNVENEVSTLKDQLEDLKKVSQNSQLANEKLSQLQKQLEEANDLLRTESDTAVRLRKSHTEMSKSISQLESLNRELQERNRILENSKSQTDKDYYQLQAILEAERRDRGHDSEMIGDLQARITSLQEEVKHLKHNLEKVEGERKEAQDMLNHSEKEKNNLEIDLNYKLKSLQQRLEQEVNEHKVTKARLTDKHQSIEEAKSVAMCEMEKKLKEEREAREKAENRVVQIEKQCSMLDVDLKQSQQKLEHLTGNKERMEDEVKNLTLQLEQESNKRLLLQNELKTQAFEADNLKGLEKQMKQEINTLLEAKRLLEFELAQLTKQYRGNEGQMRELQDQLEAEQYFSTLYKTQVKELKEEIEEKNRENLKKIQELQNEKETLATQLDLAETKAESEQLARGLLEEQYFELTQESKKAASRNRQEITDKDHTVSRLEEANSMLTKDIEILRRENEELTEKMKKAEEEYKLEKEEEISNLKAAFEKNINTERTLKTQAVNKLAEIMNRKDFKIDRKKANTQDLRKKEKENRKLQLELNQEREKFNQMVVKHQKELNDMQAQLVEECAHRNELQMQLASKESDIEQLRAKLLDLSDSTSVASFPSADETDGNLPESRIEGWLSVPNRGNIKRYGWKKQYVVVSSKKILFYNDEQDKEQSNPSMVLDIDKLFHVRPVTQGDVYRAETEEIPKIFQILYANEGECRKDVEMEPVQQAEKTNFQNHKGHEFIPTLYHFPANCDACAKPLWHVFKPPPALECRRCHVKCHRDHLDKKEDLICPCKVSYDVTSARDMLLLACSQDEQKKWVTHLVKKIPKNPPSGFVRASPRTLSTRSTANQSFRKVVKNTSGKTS

Focal adhesion kinase 1 = Focal adhesion kinase 1 (Homo sapiens, UniProt Q05397); type: functional;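 note: measured as one member of a kinome panel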
Aurora kinase A = molecular target: T3, Aurora kinase A (Homo sapiens, UniProt O14965); type: functional;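 note: value from the Navigating the Kinome kinase panel profiling, panel entry STK6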
T3 sequence (O14965 whole entry): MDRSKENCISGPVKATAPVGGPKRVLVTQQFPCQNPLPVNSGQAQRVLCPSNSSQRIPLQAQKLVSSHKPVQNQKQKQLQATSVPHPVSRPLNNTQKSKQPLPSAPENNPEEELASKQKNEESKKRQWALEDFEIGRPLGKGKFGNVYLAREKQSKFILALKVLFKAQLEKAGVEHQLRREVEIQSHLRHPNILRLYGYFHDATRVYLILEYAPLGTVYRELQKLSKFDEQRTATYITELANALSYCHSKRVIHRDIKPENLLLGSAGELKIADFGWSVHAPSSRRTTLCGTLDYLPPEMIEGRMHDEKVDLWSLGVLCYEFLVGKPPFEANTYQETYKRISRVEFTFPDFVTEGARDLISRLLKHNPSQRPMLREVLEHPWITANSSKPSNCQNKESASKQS

[10] = molecular target: Hepatocyte growth factor receptor (Homo sapiens, UniProt P08581); type: functional;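 note: kinase panel profiling across the kinome, with MET as the panel member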
[11] = molecular target: Macrophage colony-stimulating factor 1 receptor (Homo sapiens, UniProt P07333); type: functional;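 note: value comes from the Navigating the Kinome screening panel, CSF1R member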
Macrophage colony-stimulating factor 1 receptor, sequence (P07333 whole entry): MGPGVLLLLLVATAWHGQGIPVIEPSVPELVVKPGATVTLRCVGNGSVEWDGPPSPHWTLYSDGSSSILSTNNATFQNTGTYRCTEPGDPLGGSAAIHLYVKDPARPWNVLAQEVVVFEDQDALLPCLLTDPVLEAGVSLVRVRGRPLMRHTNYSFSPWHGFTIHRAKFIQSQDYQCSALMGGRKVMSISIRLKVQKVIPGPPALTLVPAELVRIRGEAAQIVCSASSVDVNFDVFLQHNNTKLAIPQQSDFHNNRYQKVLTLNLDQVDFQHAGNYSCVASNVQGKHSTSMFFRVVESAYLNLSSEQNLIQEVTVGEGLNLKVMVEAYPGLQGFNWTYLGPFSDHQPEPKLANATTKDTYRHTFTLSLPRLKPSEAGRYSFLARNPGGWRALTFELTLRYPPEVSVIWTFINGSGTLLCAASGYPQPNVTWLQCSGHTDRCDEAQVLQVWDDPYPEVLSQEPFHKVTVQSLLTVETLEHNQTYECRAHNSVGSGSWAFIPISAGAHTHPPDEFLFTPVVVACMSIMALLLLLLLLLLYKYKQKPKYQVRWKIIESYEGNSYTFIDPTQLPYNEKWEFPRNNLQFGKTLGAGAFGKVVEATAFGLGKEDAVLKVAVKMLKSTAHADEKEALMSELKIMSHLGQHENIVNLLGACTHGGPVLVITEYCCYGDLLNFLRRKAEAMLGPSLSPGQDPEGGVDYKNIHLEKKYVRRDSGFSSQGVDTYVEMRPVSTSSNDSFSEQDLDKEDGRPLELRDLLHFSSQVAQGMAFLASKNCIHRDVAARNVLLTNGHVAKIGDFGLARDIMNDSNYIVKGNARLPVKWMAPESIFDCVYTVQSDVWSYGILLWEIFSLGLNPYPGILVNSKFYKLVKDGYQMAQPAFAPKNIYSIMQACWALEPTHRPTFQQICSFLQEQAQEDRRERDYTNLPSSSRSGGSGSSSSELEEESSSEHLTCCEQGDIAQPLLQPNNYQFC

[12] = molecular target: Serine/threonine-protein kinase pim-1 (Homo sapiens, UniProt P11309); type: functional
Serine/threonine-protein kinase pim-1, sequence (P11309 whole entry): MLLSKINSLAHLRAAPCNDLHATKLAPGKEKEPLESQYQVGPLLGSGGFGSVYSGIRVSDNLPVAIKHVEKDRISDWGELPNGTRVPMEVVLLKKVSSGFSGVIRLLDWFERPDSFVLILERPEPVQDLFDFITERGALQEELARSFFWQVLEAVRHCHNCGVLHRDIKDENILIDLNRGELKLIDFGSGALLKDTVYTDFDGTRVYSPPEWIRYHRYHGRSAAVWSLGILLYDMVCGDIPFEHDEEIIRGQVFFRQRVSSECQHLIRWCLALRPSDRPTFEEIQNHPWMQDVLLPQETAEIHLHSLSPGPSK

[13] = molecular target: Mitogen-activated protein kinase kinase kinase kinase 2 (Homo sapiens, UniProt Q12851); type: functional;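 note: measured as one member of a kinome-wide kinase panel, with MAP4K2 as the panel entry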
Mitogen-activated protein kinase kinase kinase kinase 2, sequence (Q12851 whole entry): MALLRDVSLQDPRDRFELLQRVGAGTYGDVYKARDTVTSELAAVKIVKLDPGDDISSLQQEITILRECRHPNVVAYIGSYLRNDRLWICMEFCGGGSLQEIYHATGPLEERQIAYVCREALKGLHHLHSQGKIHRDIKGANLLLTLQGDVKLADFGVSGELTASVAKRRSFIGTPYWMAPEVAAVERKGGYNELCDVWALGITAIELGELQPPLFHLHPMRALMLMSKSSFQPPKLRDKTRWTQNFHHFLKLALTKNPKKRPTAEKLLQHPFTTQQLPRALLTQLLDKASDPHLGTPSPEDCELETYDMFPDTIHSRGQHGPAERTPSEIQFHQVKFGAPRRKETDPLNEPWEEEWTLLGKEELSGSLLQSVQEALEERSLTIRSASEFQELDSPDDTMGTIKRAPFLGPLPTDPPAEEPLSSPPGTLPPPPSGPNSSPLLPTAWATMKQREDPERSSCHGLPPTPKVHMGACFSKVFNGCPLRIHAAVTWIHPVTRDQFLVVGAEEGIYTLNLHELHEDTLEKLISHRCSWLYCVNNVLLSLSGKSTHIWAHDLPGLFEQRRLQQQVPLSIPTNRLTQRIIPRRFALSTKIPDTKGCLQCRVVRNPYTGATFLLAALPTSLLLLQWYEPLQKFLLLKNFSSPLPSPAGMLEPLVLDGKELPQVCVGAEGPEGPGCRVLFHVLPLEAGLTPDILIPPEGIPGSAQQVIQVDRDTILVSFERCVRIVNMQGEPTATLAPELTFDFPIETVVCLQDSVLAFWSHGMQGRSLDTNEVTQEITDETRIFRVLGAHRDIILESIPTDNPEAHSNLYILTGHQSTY

[14] = molecular target: Tyrosine-protein kinase ABL1 (Homo sapiens, UniProt P00519); type: functional
[15] = molecular target: Dual specificity protein kinase CLK2 (Homo sapiens, UniProt P49760); type: functional
[16] = molecular target: Tyrosine-protein kinase JAK3 (Homo sapiens, UniProt P52333); type: functional
Tyrosine-protein kinase JAK3, sequence (P52333 whole entry): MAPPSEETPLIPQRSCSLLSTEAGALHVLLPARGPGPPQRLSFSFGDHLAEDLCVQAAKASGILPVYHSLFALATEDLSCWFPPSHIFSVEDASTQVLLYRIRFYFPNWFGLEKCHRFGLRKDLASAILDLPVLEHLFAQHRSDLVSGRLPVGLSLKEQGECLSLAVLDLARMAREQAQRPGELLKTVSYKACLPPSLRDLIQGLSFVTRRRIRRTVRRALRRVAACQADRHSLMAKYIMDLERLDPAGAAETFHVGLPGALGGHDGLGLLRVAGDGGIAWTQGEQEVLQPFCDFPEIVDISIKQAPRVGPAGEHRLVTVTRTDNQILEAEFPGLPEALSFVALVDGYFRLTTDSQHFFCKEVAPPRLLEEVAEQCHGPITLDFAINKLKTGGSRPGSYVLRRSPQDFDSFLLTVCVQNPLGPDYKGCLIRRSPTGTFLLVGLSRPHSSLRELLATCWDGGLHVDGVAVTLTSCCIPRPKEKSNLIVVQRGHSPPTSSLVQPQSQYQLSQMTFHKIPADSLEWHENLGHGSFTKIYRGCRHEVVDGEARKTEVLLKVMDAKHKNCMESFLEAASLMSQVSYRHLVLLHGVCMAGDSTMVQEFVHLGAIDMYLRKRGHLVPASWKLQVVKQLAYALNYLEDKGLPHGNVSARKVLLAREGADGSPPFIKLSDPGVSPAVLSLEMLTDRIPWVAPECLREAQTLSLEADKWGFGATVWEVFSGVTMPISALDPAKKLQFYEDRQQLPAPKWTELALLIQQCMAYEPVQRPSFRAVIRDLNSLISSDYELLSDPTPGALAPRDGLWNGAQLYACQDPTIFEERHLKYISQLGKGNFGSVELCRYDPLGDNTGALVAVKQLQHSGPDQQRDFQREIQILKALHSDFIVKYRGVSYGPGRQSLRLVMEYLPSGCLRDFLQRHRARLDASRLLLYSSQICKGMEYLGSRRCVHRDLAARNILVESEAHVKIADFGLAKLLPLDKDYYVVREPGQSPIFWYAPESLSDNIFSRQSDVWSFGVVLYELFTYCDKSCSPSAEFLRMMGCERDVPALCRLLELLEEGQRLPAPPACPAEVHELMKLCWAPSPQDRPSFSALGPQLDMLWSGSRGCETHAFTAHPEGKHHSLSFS

[17] = cytotoxicity toward DRD oncogenic fibroblasts, dose response, cell-based, non-viral oncogenic, luminescence (AID 1934); type: functional; conditions: Homo sapiens
[18] = molecular target: Protein kinase C delta type (Homo sapiens, UniProt Q05655); type: functional
[19] = molecular target: Mitogen-activated protein kinase kinase kinase 10 (Homo sapiens, UniProt Q02779); test: Navigating the Kinome. Panel member name: MAP3K10; type: functional
[20] = molecular target: Serine/threonine-protein kinase pim-3 (Homo sapiens, UniProt Q86V86); type: functional;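 note: value obtained as one member of a broad kinase panel profiling effort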
[21] = molecular target: Calcium/calmodulin-dependent protein kinase type 1 (Homo sapiens, UniProt Q14012); type: functional
[22] = molecular target: Tyrosine-protein kinase receptor UFO (Homo sapiens, UniProt P30530); type: functional
[23] = molecular target: Tyrosine-protein kinase Srms (Homo sapiens, UniProt Q9H3Y6); type: functional;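 note: SRMS measured as one member of a kinome-wide kinase profiling panel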
[24] = molecular target: Serine/threonine-protein kinase 17A (Homo sapiens, UniProt Q9UEE5); type: functional
[25] = molecular target: Serine/threonine-protein kinase PLK4 (Homo sapiens, UniProt O00444); type: functional;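 note: PLK4 measured as one member of a kinome-wide kinase profiling panel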
[26] = molecular target: Maternal embryonic leucine zipper kinase (Homo sapiens, UniProt Q14680); type: functional

Structure (SMILES)	Ki [6]	Ki [7]	Ki [9]	Ki (Focal adhesion kinase 1)	Ki (Aurora kinase A)	Ki [10]	Ki [11]	Ki [12]	Ki [13]	Ki [14]	Ki [15]	Ki [16]	also measured
O=C1/C(=C\c2cccc(O)c2O)SC(=S)N1Cc1ccccc1													IC50 [1]: > 100 µM (inactive); AC50 [2]: 13.4 µM (active)
COc1cccc2c1NC(C(=O)O)C1CC=CC21 (stereo not given)													IC50 [3]: 12.8 µM (active); IC50 [4]: > 100 µM (active); IC50 [5]: 11.3 µM (active)
CCc1ccc(S(=O)(=O)/N=C2\C=C(Nc3ccc(O)cc3)C(=O)c3ccccc32)cc1													EC50 [17]: 3.33 µM (active)

Continued, in another order:

Ki [6]	Ki [7]	Ki [9]	Ki (Focal adhesion kinase 1)	Ki (Aurora kinase A)	Ki [10]	Ki [11]	Ki [12]	Ki [13]	Ki [14]	Ki [15]	Ki [16]	Structure (SMILES)	also measured
0.631 µM (active)	0.398 µM (active)	3.16 µM (active)	2.51 µM (active)	0.251 µM (active)	0.126 µM (active)	2 µM (active)	0.398 µM (active)	0.501 µM (active)	0.794 µM (active)	> 3.98 µM (inactive)	3.98 µM (active)	COc1c(-c2nc3ccccc3[nH]2)c(O)cc2oc(C)cc(=O)c12	Ki [8]: 0.501 µM (active)
7.94 µM (active)		39.8 µM (active)	79.4 µM (active)	> 63.1 µM (inactive)	79.4 µM (active)	79.4 µM (active)		50.1 µM (active)	100 µM (active)	63.1 µM (active)		COC(=O)c1c(N)nc2ccccn12	
	> 3.16 µM (inactive)						> 6.31 µM (inactive)				> 5.01 µM (inactive)	Cc1ccc(F)c(NC(=O)Nc2ccc(-c3cccc4[nH]nc(N)c34)cc2)c1 [LINIFANIB]	Ki [18]: > 7.94 µM (inactive); Ki [19]: > 3.16 µM (inactive); Ki [20]: > 7.94 µM (inactive); Ki [21]: 6.31 µM (active); Ki [22]: 0.126 µM (active); Ki [23]: 1.58 µM (active); Ki [24]: > 3.98 µM (inactive); Ki [25]: 0.631 µM (active); Ki [26]: 2 µM (active)

— ChEMBL document CHEMBL1201862, “PubChem BioAssay data set” (2004)
